According to publication PMC6600414, “Pharmacokinetics and Tissue Distribution of a Novel Bis-Chelated Gold(I) Diphosphine Compound, Bis(2,3-bis(tert-butylmethylphosphino)Quinoxaline)Aurate(I), in Rats” (Molecules, 2019):

Experiments:
[1] = Pharmacokinetic study in SD rats after intravenous administration (plasma, LC-MS/MS); type: in vivo, Spague-Dawley rats; settings: for AUC0-∞ / AUC0–t / C5min: rat plasma; for C5min: n = 6; for CL/F / V/F / t1/2: rat
Experimental: (§1) The analyte of GC20 in rat biological samples was extracted using one-step protein precipitation. 50 μL of rat plasma or rat tissue homogenate was treated with 250 μL methanol containing IS (375 ng/mL). Vortex for 5 min to completely precipitate the proteins contained in the biological matrix. The mixture was then centrifuged at 18,000 rpm for 10 min (Sorvall Biofuge Stratos, Waltham, MA, USA), and 5 μL supernatant was injected for analysis.
Twenty-four Spague-Dawley rats (twelve male and twelve female, 6–8 weeks old) were purchased from Shanghai SLAC Laboratory Animal Co., Ltd. (Shanghai, China). Animals were housed in an environment which controlled room temperature at 22 ± 2 °C and humidity at 55 ± 5%. Animals received 12/12 h light/dark cycle. Prior to the experiment, animals were fed a standard diet for one week to adapt to the laboratory conditions. Animal welfare and experimental procedures were strictly in accordance with the Guidelines of Animal Experiments of China Pharmaceutical University (Nanjing, China) and approved by the Animal Ethics Committee.
All rats were randomly divided into four groups, each group of six (three male and three female in each group). Three groups consisted of rats that received a single intravenous administration of GC20 at a single dose of 1, 2 or 4 mg/kg, while the fourth group consisted of rats that received a dose of 2 mg/kg on seven consecutive days. The doses for single administration was determined according to the pharmacodynamic doses and toxic doses of GC20 in animals reported in the literature. The dose for multiple administrations was selected from the intermediate dose of a single administration. Dose solutions were prepared with 10% glucose solution. Before administration, rats fasted for 12 h. Blood samples (150 μL) were collected into tubes containing heparin (as an anticoagulant) via the ophthalmic veins at 0 min (i.e., before dosing), 5 min, 10 min, 15 min, 30 min, 1 h, 2 h, 4 h, 6 h, 8 h, 12 h, 24 h, 36 h, 48 h and 72 h. Then, the tubes were centrifuged at 8000 rpm for 5 min to separate the plasma. Plasma samples were then stored at −80 °C until further analysis. The pharmacokinetic parameters were calculated by Phoenix WinNonlin 6.0 (Pharsight, Mountain View, CA, USA).

[2] = Tissue distribution in rats after single intravenous administration; type: in vivo, SD rats; settings: single i.v. 2 mg/kg
Experimental: as §1
Eighteen SD rats (nine male and nine female, 6–8 weeks old) were purchased from Shanghai SLAC Laboratory Animal Co., Ltd. (Shanghai, China). After one week of adaptation, all rats were randomly divided into three groups, each group of six (three male and three female in each group). All rats were administrated GC20 solution at a single dose of 2 mg/kg vial the tail vein. The administered dose for tissue distribution was selected from the intermediate dose of single administration in the pharmacokinetic study. Blood samples were first collected via the ophthalmic veins and then rats were sacrificed to harvest tissues (i.e., heart, liver, spleen, lungs, kidneys, stomach, small intestine, brain, skin, muscle, fat, testes/ovaries, pancreas, thymus, and leg bones) promptly at 10 min, 2 h, or 12 h after dosing. To eliminate blood and other content, the tissues were thoroughly rinsed in water. Each tissue sample was homogenized into ten-fold volumes of water and then stored at −80 °C until further analysis.

[3] = Stability of GC20 in rat plasma under different storage conditions; type: in vitro ADME; settings: for Measured Concentration: n = 6
Experimental: Extraction recovery was calculated by comparing the peak areas of extraction samples and post-extraction spiked samples. Matrix effect was evaluated by comparing the peak areas of post-extraction spiked samples and pure standard solutions. Post-extraction spiked samples were prepared as follows: Adding standard working solution into the mixed solution after protein precipitation of blank plasma to yield equivalent concentrations to corresponding extraction samples. Six replicates at three concentration levels were used for stability validation under a variety of storage and handling conditions. Samples were subjected to three freeze-thaw cycles, frozen at −80 °C for 7 days and 60 days, and storing at room temperature for 12 h. Post-preparative stability was evaluated by reanalyzing post-extraction samples kept in the autosampler at 4 °C for 48 h.

[4] = system: broad spectrum of cancer cell lines, including cisplatin-resistant ones; parameters: method as in PMID 23362983; settings: cited from earlier work
[5] = parameters: method as in PMID 23362983; settings: cited from earlier work
[6] = multiple dose i.v. 2 mg/kg on seven consecutive days
[7] = post-extraction samples, autosampler 48 h at 4 °C, spiked 50 ng/mL
[8] = post-extraction samples, autosampler 48 h at 4 °C, spiked 1000 ng/mL
[9] = rat plasma, frozen (−80 °C) for 7 days, spiked 50 ng/mL
[10] = rat plasma, frozen (−80 °C) for 7 days, spiked 1000 ng/mL
[11] = rat plasma, frozen (−80 °C) for 60 days, spiked 2 ng/mL
[12] = rat plasma, frozen (−80 °C) for 60 days, spiked 50 ng/mL
[13] = rat plasma, frozen (−80 °C) for 60 days, spiked 1000 ng/mL
[14] = rat plasma, room temperature for 12 h, spiked 2 ng/mL
[15] = rat plasma, room temperature for 12 h, spiked 50 ng/mL
[16] = rat plasma, room temperature for 12 h, spiked 1000 ng/mL
[17] = rat plasma, three freeze-thaw cycles, spiked 2 ng/mL
[18] = rat plasma, three freeze-thaw cycles, spiked 50 ng/mL
[19] = rat plasma, three freeze-thaw cycles, spiked 1000 ng/mL

## CC(C)(C)[P+]1(C)c2nc3ccccc3nc2[P+](C)(C(C)(C)C)[Au-3]12[P+](C)(C(C)(C)C)c1nc3ccccc3nc1[P+]2(C)C(C)(C)C (centres unmarked) [GC20, Bis(2,3-bis(tert-butylmethylphosphino)quinoxaline)aurate(I)]
[1]; [6]
  AUC0-∞: 6936.7 ± 1005.4 ng·h/mL
  C5min: 3645.8 ± 388.3 ng/mL
  CL/F: 4.83 ± 0.67 mL/min/kg
  V/F: 10.6 ± 1.7 L/kg
  t1/2: 25.1 ± 3.0 h
[1]; multiple dose i.v. 2 mg/kg on seven consecutive days, 0–24 h
  AUC0–t: 4551.2 ± 440.3 ^# h*ng/mL
[1]; single dose i.v. 1 mg/kg
  AUC0-∞: 1457.0 ± 354.5 ng·h/mL
  C5min: 1564.6 ± 387.5 ng/mL
  CL/F: 12 ± 3.17 mL/min/kg
  V/F: 11.89 ± 3.35 L/kg
  t1/2: 11.33 ± 0.57 h
[1]; single dose i.v. 1 mg/kg, 0–72 h
  AUC0–t: 1419.9 ± 345.5 ng·h/mL
[1]; single dose i.v. 2 mg/kg
  AUC0-∞: 2540.5 ± 308.6 ng·h/mL
  C5min: 2657.6 ± 632.7 ng/mL
  CL/F: 13.3 ± 1.67 mL/min/kg
  V/F: 13.00 ± 2.39 L/kg
  t1/2: 11.24 ± 0.75 h
[1]; single dose i.v. 2 mg/kg, 0–72 h
  AUC0–t: 2466.4 ± 298.3 ng·h/mL
[1]; single dose i.v. 4 mg/kg
  AUC0-∞: 7562.2 ± 2709.6 ng·h/mL
  C5min: 5902.6 ± 1955.2 ng/mL
  CL/F: 10 ± 4 mL/min/kg
  V/F: 11.11 ± 5.28 L/kg
  t1/2: 12.58 ± 1.80 h
[1]; single dose i.v. 4 mg/kg, 0–72 h
  AUC0–t: 7237.1 ± 2695.0 ng·h/mL
[1]; rats, consecutive administration for 7 days
  accumulation after multiple doses: accumulated in rats after multiple doses
[1]; rats, i.v. 2 mg/kg for 7 days vs single administration
  elimination half-life after multiple doses relative to single administration: twice that after a single administration
[1]; rats, single administration of low, medium and high doses (i.v.)
  elimination half-life: 11 to 13 h
[2]; 10 min, 2 h, 12 h
  tissue with the lowest concentration: lowest in the brain
  tissues with the highest concentrations: lung, spleen, liver, and pancreas
[2]; spleen, liver, kidney and heart
  time of highest tissue concentration: 2 h
[3]; post-extraction samples, autosampler 48 h at 4 °C, spiked 2 ng/mL
  Measured Concentration: 1.8 ± 0.0 ng/mL
[3]; [7]
  Accuracy (RE%): −9.5%
  Measured Concentration: 45.2 ± 0.1 ng/mL
[3]; [8]
  Accuracy (RE%): −9.9%
  Measured Concentration: 901.3 ± 17.1 ng/mL
[3]; rat plasma, frozen (−80 °C) for 7 days, spiked 2 ng/mL
  Accuracy (RE%): 8.2%
[3]; [9]
  Accuracy (RE%): 4.1%
  Measured Concentration: 52.0 ± 0.9 ng/mL
[3]; [10]
  Accuracy (RE%): 3.1%
  Measured Concentration: 1030.5 ± 15.9 ng/mL
[3]; [11]
  Accuracy (RE%): −8.9%
  Measured Concentration: 1.8 ± 0.1 ng/mL
[3]; [12]
  Accuracy (RE%): −5.4%
  Measured Concentration: 47.3 ± 0.6 ng/mL
[3]; [13]
  Accuracy (RE%): −3.0%
  Measured Concentration: 970.1 ± 27.3 ng/mL
[3]; [14]
  Accuracy (RE%): −9.2%
  Measured Concentration: 1.8 ± 0.1 ng/mL
[3]; [15]
  Accuracy (RE%): 2.0%
  Measured Concentration: 51.0 ± 0.4 ng/mL
[3]; [16]
  Accuracy (RE%): 2.1%
  Measured Concentration: 1020.7 ± 23.6 ng/mL
[3]; [17]
  Accuracy (RE%): 8.7%
  Measured Concentration: 2.2 ± 0.1 ng/mL
[3]; [18]
  Accuracy (RE%): 2.3%
  Measured Concentration: 51.1 ± 0.3 ng/mL
[3]; [19]
  Accuracy (RE%): 0.2%
  Measured Concentration: 1001.8 ± 19.0 ng/mL
[3]; rat plasma, room temperature 12 h, −80 °C 7 and 60 days, three freeze-thaw cycles, autosampler 4 °C 48 h
  stability under typical sample storage and processing conditions: stable
[4]; broad spectrum of cancer cell lines, including cisplatin-resistant ones
  inhibitory effect on proliferation: strong inhibitory effect
[4]
  selectivity between cancer cells and normal cells: remarkable selectivity
[5]
  toxicity in animal models as compared to cisplatin: lower toxicity
